# Measurements from PMC10139140, “Synthesis of Novel 2-(Cyclopentylamino)thiazol-4(5H)-one Derivatives with Potential Anticancer, Antioxidant, and 11β-HSD Inhibitory Activities” (International Journal of Molecular Sciences, 2023).
# Tests used:
# [1] = system: BJ cells; assay: MTS metabolic activity assay, BJ cells; format: cell-based; settings: Homo sapiens, 72 h, read-out: Cell metabolic activity (MTS), % of untreated control
# Experimental: (§1) The BJ (CRL-2522), Caco-2 (HTB-37), PANC-1 (CRL-1469), U-118 MG (HTB-15), SK-MEL-30 (ACC 151), and MDA-MB-231 (HTB-26) cell lines were purchased from ATCC (Manassas, VA, USA) or DSMZ (Braunschweig, GERMANY). Cells were cultured in accordance with manufacturers' recommendations in a DMEM, MEM, or RPMI-1640 (Sigma, Saint Louis, MO, USA; Gibco, Waltham, MA, USA), supplemented with 10% FBS, except for Caco-2 (20%) (Thermo Fisher Scientific, Waltham, MA, USA) and 1% antibiotic mix solution (penicillin, streptomycin; Thermo Fisher Scientific, Waltham, MA, USA) in a humidified atmosphere with 5% CO2 at 37 °C. All cell lines were cultured in T75 cell culture flasks or cell culture dishes to reach 80–90% confluency and seeded at a standard density of 5 × 10^3 cells/0.32 cm^2, except for BJ cells at 2 × 10^3 cells/0.32 cm^2.
# (§2) The MTS ((MTS: 3-(4,5-dimethylthiazol-2-yl)-5-(3-carboxymethoxyphenyl)-2-(4-sulfophenyl)-2H-tetrazolium)) assay was performed following previously reported method. Briefly, cells were seeded at a standard density into 96-well flat-bottom plates and incubated for 24 h, followed by the treatment. The various concentrations of compounds were prepared and treated for the next 72 h. MTS solution was added for 3h and incubated at standard conditions, protected from light. Finally, the absorbance was read at […] and 620 nm wavelengths using a Synergy H1 microplate reader (BioTek, Santa Clara, CA, USA). The results are presented as %, while untreated control cells were considered 100%.
# [2] = system: glioma (U-118 MG); assay: MTS metabolic activity assay, U-118 MG cells; format: cell-based; settings: 72 h; for viability at 10 µM / viability at 20 µM / viability at 50 µM / viability at 100 µM / viability at 200 µM / viability at 300 µM / viability at 500 µM: Homo sapiens, U-118-MG, U118-MG, read-out: Cell metabolic activity (MTS), % of untreated control
# Experimental: as §1, §2
# [3] = biological target: T1, 11β-HSD2 (Homo sapiens, UniProt P80365); assay: Inhibition of 11β-HSD2 (cortisol to cortisone, human microsomes, cortisol ELISA); format: biochemical; settings: 2.5 h, 37 °C
# T1 construct: Human liver microsomes were used as a source of 11β-HSD2 enzyme; tissue XenoTech Lot No. 1710160; host or cells: human kidney microsomes, mixed gender (method text says human liver microsomes)
# T1 sequence (P80365 1-405): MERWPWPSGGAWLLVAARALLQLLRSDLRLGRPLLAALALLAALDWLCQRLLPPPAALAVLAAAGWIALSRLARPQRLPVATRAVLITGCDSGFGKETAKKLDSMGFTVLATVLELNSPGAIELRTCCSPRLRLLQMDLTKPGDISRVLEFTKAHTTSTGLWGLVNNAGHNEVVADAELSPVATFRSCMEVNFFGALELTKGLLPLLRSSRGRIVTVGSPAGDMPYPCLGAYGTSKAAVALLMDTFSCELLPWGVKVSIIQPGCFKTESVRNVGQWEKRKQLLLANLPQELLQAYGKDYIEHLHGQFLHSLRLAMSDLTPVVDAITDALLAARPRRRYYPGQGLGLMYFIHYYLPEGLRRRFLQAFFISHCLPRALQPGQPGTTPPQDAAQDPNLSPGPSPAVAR
# Experimental: The resulting solution with a final volume of 100 µL was incubated for 2.5 h at 37 °C. […] The level of unreacted cortisol was measured by a commercially available ELISA kit.
# [4] = system: human breast carcinoma (MDA-MB-231); assay: MTS metabolic activity assay, MDA-MB-231 cells; format: cell-based; settings: Homo sapiens, 72 h, read-out: Cell metabolic activity (MTS), % of untreated control; for viability at 10 µM: MDA-MB-231, 10 µM; for viability at 20 µM: MDA-MB-231, 20 µM; for viability at 50 µM: MDA-MB-231, 50 µM; for viability at 100 µM: MDA-MB-231, 100 µM; for viability at 200 µM: MDA-MB-231, 200 µM; for viability at 300 µM: MDA-MB-231, 300 µM; for viability at 500 µM: MDA-MB-231, 500 µM
# Experimental: as §1, §2
# [5] = system: human colon carcinoma (Caco-2); assay: MTS metabolic activity assay, Caco-2 cells; format: cell-based; settings: 72 h; for viability at 10 µM / viability at 20 µM / viability at 50 µM / viability at 100 µM / viability at 200 µM / viability at 300 µM / viability at 500 µM: Homo sapiens, read-out: Cell metabolic activity (MTS), % of untreated control; for viability at 10 µM: Caco-2, 10 µM; for viability at 20 µM: Caco-2, 20 µM; for viability at 50 µM: Caco-2, 50 µM; for viability at 100 µM: Caco-2, 100 µM; for viability at 200 µM: Caco-2, 200 µM; for viability at 300 µM: Caco-2, 300 µM; for viability at 500 µM: Caco-2, 500 µM
# Experimental: as §1, §2
# [6] = system: human pancreatic carcinoma (PANC-1); assay: MTS metabolic activity assay, PANC-1 cells; format: cell-based; settings: for viability at 10 µM / viability at 20 µM / viability at 50 µM / viability at 100 µM / viability at 200 µM / viability at 300 µM / viability at 500 µM: Homo sapiens, 72 h, read-out: Cell metabolic activity (MTS), % of untreated control; for viability at 10 µM: PANC-1, 10 µM; for viability at 20 µM: PANC-1, 20 µM; for viability at 50 µM: PANC-1, 50 µM; for viability at 100 µM: PANC-1, 100 µM; for viability at 200 µM: PANC-1, 200 µM; for viability at 300 µM: PANC-1, 300 µM; for viability at 500 µM: PANC-1, 500 µM
# Experimental: as §1, §2
# [7] = biological target: T2, 11β-HSD1 (Homo sapiens, UniProt P28845); assay: Inhibition of 11β-HSD1 (cortisone to cortisol, human liver microsomes, cortisol ELISA); format: biochemical; settings: for inhibition at 10 µM: 2.5 h, 37 °C
# T2 construct: Human liver microsomes were used as a source of 11β-HSD1 enzyme; tissue XenoTech Lot No. 1410013; host or cells: pooled human liver microsomes, mixed gender
# T2 sequence (P28845 whole entry): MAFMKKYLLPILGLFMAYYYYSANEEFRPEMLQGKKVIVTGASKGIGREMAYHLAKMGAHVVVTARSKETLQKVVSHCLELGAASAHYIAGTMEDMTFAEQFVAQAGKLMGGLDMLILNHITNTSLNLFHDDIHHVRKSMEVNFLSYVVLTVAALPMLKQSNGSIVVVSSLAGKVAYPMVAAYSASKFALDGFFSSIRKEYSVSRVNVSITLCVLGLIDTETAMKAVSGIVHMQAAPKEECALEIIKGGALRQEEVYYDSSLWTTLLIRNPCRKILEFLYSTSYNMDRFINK
# Experimental: The resulting solution with a final volume of 100 µL was incubated for 2.5 h at 37 °C. To stop the reaction, 10 µL of a 100 µM solution of 18β-glycyrrhetinic acid in PBS was added. The level of cortisol obtained in the reaction was measured by commercially available ELISA kit.
# As a control, analogous tests without the addition of inhibitors were used. Half the inhibitory concentration (causing 50% reduction of cortisol or cortisone) was read from the chart.
# [8] = system: skin melanoma (SK-MEL-30); assay: MTS metabolic activity assay, SK-MEL-30 cells; format: cell-based; settings: 72 h; for viability at 10 µM / viability at 20 µM / viability at 50 µM / viability at 100 µM / viability at 200 µM / viability at 300 µM / viability at 500 µM: Homo sapiens, read-out: Cell metabolic activity (MTS), % of untreated control; for viability at 10 µM: SK-MEL-30, 10 µM; for viability at 20 µM: SK-MEL-30, 20 µM; for viability at 50 µM: SK-MEL-30, 50 µM; for viability at 100 µM: SK-MEL-30, 100 µM; for viability at 200 µM: SK-MEL-30, 200 µM; for viability at 300 µM: SK-MEL-30, 300 µM; for viability at 500 µM: SK-MEL-30, 500 µM
# Experimental: as §1, §2
smiles,measurement,setting,value
"O=C1N=C(NC2CCCC2)SC1c1ccccc1 (stereo not shown) [Compound 3f, 2-(cyclopentylamino)-5-phenylthiazol-4(5H)-one]",viability at 10 µM,[1],107%
same,viability at 20 µM,[1],102%
same,viability at 50 µM,[1],102%
same,viability at 100 µM,[1],106%
same,viability at 200 µM,[1],105%
same,viability at 300 µM,[1],106%
same,viability at 500 µM,[1],96.8%
same,viability at 10 µM,[2],116%
same,viability at 20 µM,[2],114%
same,viability at 50 µM,[2],114%
same,viability at 100 µM,[2],115%
same,viability at 200 µM,[2],110%
same,viability at 300 µM,[2],106%
same,viability at 500 µM,[2],86.8%
same,highest increase in proliferation (cell metabolic activity),"[2]; U-118 MG, range given for the named substances together",115 to 144%
same,inhibition at 10 µM,[3],36.5 ± 3.07%
same,viability at 10 µM,[4],96.2%
same,viability at 20 µM,[4],100%
same,viability at 50 µM,[4],95.3%
same,viability at 100 µM,[4],95.9%
same,viability at 200 µM,[4],87.8%
same,viability at 300 µM,[4],79.1%
same,viability at 500 µM,[4],78.2%
same,viability at 10 µM,[5],91.3%
same,viability at 20 µM,[5],90.4%
same,viability at 50 µM,[5],93.7%
same,viability at 100 µM,[5],87.4%
same,viability at 200 µM,[5],89.7%
same,viability at 300 µM,[5],87.1%
same,viability at 500 µM,[5],75.2%
same,viability at 10 µM,[6],110%
same,viability at 20 µM,[6],102%
same,viability at 50 µM,[6],117%
same,viability at 100 µM,[6],117%
same,viability at 200 µM,[6],137%
same,viability at 300 µM,[6],141%
same,viability at 500 µM,[6],141%
same,highest increase in proliferation (cell metabolic activity),"[6]; PANC-1, 72 h, range given for the named substances together",115 to 144%
same,IC50,[7],1100 ± 80 nM
same,inhibition at 10 µM,[7],64.3 ± 5.07%
same,viability at 10 µM,[8],96.1%
same,viability at 20 µM,[8],98.2%
same,viability at 50 µM,[8],99.7%
same,viability at 100 µM,[8],100%
same,viability at 200 µM,[8],93.8%
same,viability at 300 µM,[8],73.2%
same,viability at 500 µM,[8],50%
same,"cell viability, decreases to","[8]; SK-MEL-30, higher concentrations, range given for the most effective substances together",20–65%
"O=C1N=C(NC2CCCC2)SC12CCC2 [Compound 3i, 6-(cyclopentylamino)-5-thia-7-azaspiro[3.4]oct-6-en-8-one]",viability at 10 µM,[1],102%
same,viability at 20 µM,[1],104%
same,viability at 50 µM,[1],105%
same,viability at 100 µM,[1],111%
same,viability at 200 µM,[1],116%
same,viability at 300 µM,[1],121%
same,viability at 500 µM,[1],115%
same,viability at 10 µM,[2],107%
same,viability at 20 µM,[2],108%
same,viability at 50 µM,[2],111%
same,viability at 100 µM,[2],109%
same,viability at 200 µM,[2],112%
same,viability at 300 µM,[2],109%
same,viability at 500 µM,[2],108%
same,inhibition at 10 µM,[3],46.3 ± 1.22%
same,viability at 10 µM,[4],87.2%
same,viability at 20 µM,[4],91.2%
same,viability at 50 µM,[4],89.6%
same,viability at 100 µM,[4],85.1%
same,viability at 200 µM,[4],72.5%
same,viability at 300 µM,[4],69.3%
same,viability at 500 µM,[4],58.7%
same,"cell viability, decreases to","[5]; Caco-2, higher concentrations, range given for the most effective substances together",20–65%
same,viability at 10 µM,[5],92.2%
same,viability at 20 µM,[5],91.2%
same,viability at 50 µM,[5],92.9%
same,viability at 100 µM,[5],82.5%
same,viability at 200 µM,[5],77.5%
same,viability at 300 µM,[5],69.8%
same,viability at 500 µM,[5],61.5%
same,viability at 10 µM,[6],95.4%
same,viability at 20 µM,[6],93.3%
same,viability at 50 µM,[6],97.3%
same,viability at 100 µM,[6],91.4%
same,viability at 200 µM,[6],91.2%
same,viability at 300 µM,[6],79.7%
same,viability at 500 µM,[6],66.6%
same,IC50,[7],1550 ± 100 nM
same,inhibition at 10 µM,[7],71.2 ± 4.77%
same,viability at 10 µM,[8],88.1%
same,viability at 20 µM,[8],94%
same,viability at 50 µM,[8],97.3%
same,viability at 100 µM,[8],99%
same,viability at 200 µM,[8],101%
same,viability at 300 µM,[8],102%
same,viability at 500 µM,[8],103%
